Laboratory results as given in patent US20260285846A1, “REV-ERB AGONISTS FOR TH17-MEDIATED INFLAMMATORY DISORDERS” (UNIVERSITY OF FLORID RESEARCH FOUNDATION, iNCORPORATED, priority 2021, published 2026).

biological target: REV-ERBα LBD (Homo sapiens, UniProt P20393, DEL324-422); assay: biochemical; settings: FRET assay; 6xHistag-REV-ERBα LBD with FITC-labeled SMRT corepressor peptide; read-out: REVERBα (Agonism of REV-ERBα, EC50)
Procedure: TR-FRET corepressor interaction assay. The time-resolved fluorescence resonance energy transfer (TR-FRET) assay was performed in black low-volume 384-well plates (Greiner). Each well contained 4 nM 6×Histag-REV-ERBα LBD (human; residues 281-614 A324-422) or 6×Histag-REV-ERBα LBD (human; residues 381-579) protein expressed in and purified from Escherichia coli using nickel affinity and size exclusion chromatography; 1 nM LanthaScreen Elite Tb-anti-HIS Antibody (Thermo Fisher Scientific); and 400 nM FITC-labeled peptide derived from the SMRT corepressor ([…]) containing a N-terminal FITC label with a six-carbon linker (Ahx) and an amidated C-terminus for stability (synthesized by LifeTein) in TR-FRET buffer (20 mM potassium phosphate, pH 7.4, 50 mM potassium chloride, 1 mM dithiothreitol, and 0.005% Tween-20). Ligand stocks were prepared via serial dilution in DMSO, added to wells in triplicate, and plates were incubated at 4° C. for 2 h and read using a BioTek Synergy Neo multimode plate reader. The Tb donor was excited at 340 nm; its fluorescence emission was monitored at 495 nm, and the acceptor FITC emission was measured at 520 nm; and the TR-FRET ratio was calculated as the signal at 520 nm divided by the signal at 495 nm. Data were plotted using GraphPad Prism as TR-FRET ratio vs. ligand concentration and fit to sigmoidal dose response curve equation.
Exemplary compounds of the present disclosure were assayed as described above to assess agonism of REV-ERBα. Results of the FRET assay are shown in Table 2 below (A: EC50<100 nM; B: EC50 100 nM-1000 nM; C: EC50>1000 nM; NT: not tested).

Sequence of REV-ERBα LBD (P20393 with tags, fused parts or gaps DEL324-422): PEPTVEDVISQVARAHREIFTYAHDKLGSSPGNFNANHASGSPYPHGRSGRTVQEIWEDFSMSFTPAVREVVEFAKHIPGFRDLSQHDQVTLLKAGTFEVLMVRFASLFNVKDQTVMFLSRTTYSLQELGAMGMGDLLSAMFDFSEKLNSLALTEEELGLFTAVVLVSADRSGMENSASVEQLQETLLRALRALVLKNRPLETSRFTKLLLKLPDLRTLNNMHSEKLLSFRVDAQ
Sequence of REV-ERBα LBD (Q9Y618 2335-2356 partner limits assumed): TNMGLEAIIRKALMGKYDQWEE

Structure (SMILES)	EC50 [nM]
CC(C)(C)Cn1cc([C@H](NS(=O)(=O)C2CC2)C(F)(F)F)c2cc(F)c(-c3ncccc3C(F)(F)F)cc21 [Compound 9, (S)—N-(2,2,2-trifluoro-1-(5-fluoro-1-neopentyl-6-(3-(trifluoromethyl)pyridin-2-yl)-1H-indol-3-yl)ethyl)cyclopropanesulfonamide]	100 to 1000
CC(C)(C)Cn1cc([C@H](NS(=O)(=O)N2CCC2)C(F)F)c2cc(F)c(-c3ccccc3C(F)(F)F)cc21 [Compound 31, (S)—N-(2,2-difluoro-1-(5-fluoro-1-neopentyl-6-(2-(trifluoromethyl)phenyl)-1H-indol-3-yl)ethyl)azetidine-1-sulfonamide]	< 100
CC(C)(C)Cn1cc([C@H](NS(=O)(=O)C2CC2)C(F)F)c2ccc(-c3ncc(F)cc3C#N)cc21 [Compound 88, (S)—N-(1-(6-(3-cyano-5-fluoropyridin-2-yl)-1-neopentyl-1H-indol-3-yl)-2,2-difluoroethyl)cyclopropanesulfonamide]	< 100
CC(C)(C)Cn1cc([C@H](NS(=O)(=O)C2CC2)C(F)F)c2cc(F)c(-c3ccc(=O)[nH]c3C(F)(F)F)cc21 [Compound 169, (S)—N-(2,2-difluoro-1-(5-fluoro-1-neopentyl-6-(6-oxo-2-(trifluoromethyl)-1,6-dihydropyridin-3-yl)-1H-indol-3-yl)ethyl)cyclopropanesulfonamide]	< 100
CN(C)S(=O)(=O)N[C@@H](c1cn(CC(C)(C)C)c2cc(-c3nccnc3C(F)(F)F)ccc12)C(F)F [Compound 51]	< 100
CC(C)(C)Cn1cc([C@H](NS(=O)(=O)C2CC2)C(F)F)c2cc(F)c(-c3nccnc3C(F)(F)F)cc21 [Compound 57, (S)—N-(2,2-difluoro-1-(5-fluoro-1-neopentyl-6-(3-(trifluoromethyl)pyrazin-2-yl)-1H-indol-3-yl)ethyl)cyclopropanesulfonamide]	< 100
CC(NS(=O)(=O)C1CC1)c1cn(CC(C)(C)C)c2cc(-c3ccc(C(F)(F)F)nc3)c(F)cc12 (stereo not drawn) [Compound 70, N-(1-(5-fluoro-1-neopentyl-6-(6-(trifluoromethyl)pyridin-3-yl)-1H-indol-3-yl)ethyl)cyclopropanesulfonamide]	100 to 1000
CC(C)(C)Cn1cc([C@H](NS(=O)(=O)C2CC2)C(F)F)c2cc(F)c(-c3cccnc3C(F)(F)F)cc21 [Compound 38, (S)—N-(2,2-difluoro-1-(5-fluoro-1-neopentyl-6-(2-(trifluoromethyl)pyridin-3-yl)-1H-indol-3-yl)ethyl)cyclopropanesulfonamide]	< 100
CC(C)(C)Cn1cc([C@H](NS(=O)(=O)C2CC2)C(F)(F)F)c2ccc(-c3cc(F)ccc3C#N)cc21 [Compound 2, (S)—N-(1-(6-(2-cyano-5-fluorophenyl)-1-neopentyl-1H-indol-3-yl)-2,2,2-trifluoroethyl)cyclopropanesulfonamide]	100 to 1000
CC(C)(C)Cn1cc([C@H](NS(=O)(=O)C2CC2)C(F)F)c2cc(F)c(-c3ncccc3F)cc21 [Compound 89, (S)—N-(2,2-difluoro-1-(5-fluoro-6-(3-fluoropyridin-2-yl)-1-neopentyl-1H-indol-3-yl)ethyl)cyclopropanesulfonamide]	< 100
CC(C)(C)Cn1cc([C@H](NS(=O)(=O)C2CC2)C(F)F)c2cc(F)c(-c3c(C#N)cccc3C(F)(F)F)cc21 [Compound 108, N-((1S)-1-(6-(2-cyano-6-(trifluoromethyl)phenyl)-5-fluoro-1-neopentyl-1H-indol-3-yl)-2,2-difluoroethyl)cyclopropanesulfonamide]	< 100
CC(C)(C)Cn1cc([C@H](NS(=O)(=O)C2CC2)C(F)F)c2ccc(-c3c(F)cccc3C(F)F)cc21 [Compound 104, (S)—N-(1-(6-(2-(difluoromethyl)-6-fluorophenyl)-1-neopentyl-1H-indol-3-yl)-2,2-difluoroethyl)cyclopropanesulfonamide]	< 100
CC(C)(C)Cn1cc([C@H](NS(=O)(=O)C2CC2)C(F)F)c2cc(F)c(-c3cccnc3C(F)F)cc21 [Compound 97, (S)—N-(1-(6-(2-(difluoromethyl)pyridin-3-yl)-5-fluoro-1-neopentyl-1H-indol-3-yl)-2,2-difluoroethyl)cyclopropanesulfonamide]	< 100
CC(NS(=O)(=O)C1CC1)c1cn(CC(C)(C)C)c2cc(-c3ccc(F)cn3)c(F)cc12 (stereo not drawn) [Compound 64, N-(1-(5-fluoro-6-(5-fluoropyridin-2-yl)-1-neopentyl-1H-indol-3-yl)ethyl)cyclopropanesulfonamide]	100 to 1000

The next lines start with the values.

EC50 [nM]	Structure (SMILES)
< 100	CC(C)(C)Cn1cc([C@H](NS(=O)(=O)C2CCC2)C(F)F)c2ccc(-c3cccnc3C(F)(F)F)cc21 [Compound 14, (S)—N-(2,2-difluoro-1-(1-neopentyl-6-(2-(trifluoromethyl)pyridin-3-yl)-1H-indol-3-yl)ethyl)cyclobutanesulfonamide]
< 100	CC(C)(C)Cn1cc([C@H](NS(=O)(=O)C2CC2)C(F)F)c2ccc(-c3ccc(F)cc3C(F)(F)F)nc21 [Compound 4, (S)—N-(2,2-difluoro-1-(6-(4-fluoro-2-(trifluoromethyl)phenyl)-1-neopentyl-1H-pyrrolo[2,3-b]pyridin-3-yl)ethyl)cyclopropanesulfonamide]
< 100	CC(C)(C)Cn1cc([C@H](NS(=O)(=O)C2CC2)C(F)F)c2cc(F)c(-c3ncc(F)cc3F)cc21 [Compound 91, (S)—N-(1-(6-(3,5-difluoropyridin-2-yl)-5-fluoro-1-neopentyl-1H-indol-3-yl)-2,2-difluoroethyl)cyclopropanesulfonamide]
< 100	CC(C)(C)Cn1cc([C@H](NS(=O)(=O)C2CC2)C(F)F)c2ccc(-c3ncccc3C#N)cc21 [Compound 40, (S)—N-(1-(6-(3-cyanopyridin-2-yl)-1-neopentyl-1H-indol-3-yl)-2,2-difluoroethyl)cyclopropanesulfonamide]
< 100	O=S(=O)(N[C@@H](c1cn(C2CC(F)C2)c2cc(-c3cc(F)cnc3C(F)(F)F)c(F)cc12)C(F)F)C1CC1 (stereo partly drawn) [Compound 182, (S)—N-(2,2-difluoro-1-(5-fluoro-6-(5-fluoro-2-(trifluoromethyl)pyridin-3-yl)-1-(3-fluorocyclobutyl)-1H-indol-3-yl)ethyl)cyclopropanesulfonamide]
< 100	CC(NS(=O)(=O)C1CC1)c1cn(CC(C)(C)C)c2cc(-c3ncccc3Cl)c(F)cc12 (stereo not drawn) [Compound 58, N-[1-[6-(3-chloro-2-pyridyl)-1-(2,2-dimethylpropyl)-5-fluoro-indol-3-yl]ethyl]cyclopropanesulfonamide]
< 100	CC(C)(C)Cn1cc([C@H](NS(=O)(=O)C2CC2)C(F)F)c2ccc(-c3ccccc3C(F)F)cc21 [Compound 81, (S)—N-(1-(6-(2-(difluoromethyl)phenyl)-1-neopentyl-1H-indol-3-yl)-2,2-difluoroethyl)cyclopropanesulfonamide]
< 100	CC(C)(C)Cn1cc([C@H](NS(=O)(=O)C2CC2)C(F)F)c2ccc(-c3c[n+]([O-])ccc3C(F)(F)F)cc21 [Compound 107, (S)-3-(3-(1-(cyclopropanesulfonamido)-2,2-difluoroethyl)-1-neopentyl-1H-indol-6-yl)-4-(trifluoromethyl)pyridine 1-oxide]
< 100	CC(C)(C)Cn1cc([C@H](NS(=O)(=O)C2CC2)C(F)F)c2cc(F)c(-c3cc(Cl)cnc3C(F)(F)F)cc21 [Compound 143, (S)—N-(1-(6-(5-chloro-2-(trifluoromethyl)pyridin-3-yl)-5-fluoro-1-neopentyl-1H-indol-3-yl)-2,2-difluoroethyl)cyclopropanesulfonamide]
< 100	CC(C)(C)Cn1cc([C@H](NS(=O)(=O)C2CC2)C(F)F)c2ccc(-c3ncc(F)cc3F)cc21 [Compound 84, (S)—N-(1-(6-(3,5-difluoropyridin-2-yl)-1-neopentyl-1H-indol-3-yl)-2,2-difluoroethyl)cyclopropanesulfonamide]
< 100	CC(C)(C)Cn1cc([C@H](NS(=O)(=O)C2CC2)C(F)F)c2ccc(-c3ncc(F)cc3Cl)cc21 [Compound 78, (S)—N-(1-(6-(3-chloro-5-fluoropyridin-2-yl)-1-neopentyl-1H-indol-3-yl)-2,2-difluoroethyl)cyclopropanesulfonamide]
< 100	CC(NS(=O)(=O)C1CC1)c1cn(CC(C)(C)C)c2cc(-c3ncc(F)cc3C#N)c(F)cc12 (stereo not drawn) [Compound 63, N-(1-(6-(3-cyano-5-fluoropyridin-2-yl)-5-fluoro-1-neopentyl-1H-indol-3-yl)ethyl)cyclopropanesulfonamide]
< 100	CC(C)(C)Cn1cc([C@H](NS(=O)(=O)C2CC2)C(F)F)c2ccc(-c3ccncc3C(F)(F)F)cc21 [Compound 102, (S)—N-(2,2-difluoro-1-(1-neopentyl-6-(3-(trifluoromethyl)pyridin-4-yl)-1H-indol-3-yl)ethyl)cyclopropanesulfonamide]
